{
  "source": "patent US20140018432A1",
  "about": "“ELECTROCHEMICAL GENERATION OF CHLORINATED UREA DERIVATIVES” (Hercules Incorporated, priority 2012, published 2014)",
  "key": {"microorganisms": {"tested_on": "microorganisms", "experiment": "Microbiological studies (biocidal activity)", "conditions": "no details given"}, "[1]": {"experiment": "Stability of aqueous solutions of the chlorinated ureas", "type": "physicochemical"}},
  "data": [
    {"smiles": "NC(=O)NCl", "note": "[N-chlorourea]", "values": [
      {"measurement": "biocidal activity", "setting": "microorganisms", "value": "potent biocides"}
    ]},
    {"smiles": "CNC(=O)N(C)Cl", "note": "[N-chloro-N,N′-dimethylurea]", "values": [
      {"measurement": "biocidal activity", "setting": "microorganisms", "value": "potent biocides"},
      {"measurement": "stability compared with N-chlorourea", "setting": "[1]", "value": "significantly more stable than N-chlorourea"},
      {"measurement": "stability of solution", "setting": "[1]; basic solutions (pH 12 and higher, flow cell without membrane)", "value": "not stable"},
      {"measurement": "stability of solution", "setting": "[1]; neutral or acidic environment", "value": "significantly more stable"}
    ]}
  ]
}
